Key:
[1] = Ratio of unbound brain to plasma concentration in iv dosed rat administered as 4 hrs infusion by equilibrium dialysis method; format: ADME, organism-based; conditions: brain and plasma, read-out: K(p,uu,brain)
[2] = Clearance in iv dosed rat administered as 4 hrs infusion; format: ADME, organism-based; conditions: in vivo
in vitro [3] = conditions: dog, MDCK
[4] = Oral bioavailability in rat; format: ADME, organism-based; conditions: in vivo
in vitro [5] = conditions: human, hepatocytes
physchem = conditions: buffer, pH 7.4
in vitro [6] = conditions: human, liver microsomes
[7] = Drug metabolism in human hepatocytes assessed as CYP450-mediated metabolite formation at 1 uM up to 240 mins by LC-MS/MS analysis; format: ADME, cell-based; conditions: 4 h

Q: What does the source list for `Cn1cnc(-c2ccc(OC3CCN(C(=O)Cc4ccc(OC(F)(F)F)cc4)CC3)c(C(N)=O)c2)c1`?
A: Kp uu at 4 h [1]: 0.0065; clearance [2]: 38 mL/min/kg; Papp A→B (in vitro [3]): 10 ×10⁻⁶ cm/s; bioavailability [4]: 45%; hepatocyte CLint at 4 h, 1 µM (in vitro [5]): 8 µL/min/1e6 cells; logD (physchem): 2.9; microsomal CLint at 1 h, 1 µM (in vitro [6]): < 8 µL/min/mg; Drug metabolism [7]: Metabolite_Detected
